Tested on: DU-145 cells
Assay: Cell proliferation assay (Alamar-Blue), proliferation inhibition of DU-145 cells
Format: cell-based
Details: Homo sapiens, 72 h, 3 days incubation, Alamar-Blue fluorescence
Description: Protocol for Cell Proliferation Assay:
This homogeneous assay involves simply adding a single reagent, the Alamar-Blue, to the cell culture and measuring the fluorescence intensity (excitation wavelength=530 nm, emission wavelength=590 nm) after an incubation step. The Alamar-Blue reagent utilizes the redox dye resazurin, which is not fluorescent, but upon reduction by metabolically active cells is converted into a highly fluorescent product (resorufin). A decrease in fluorescence in the presence of a test compound indicates reduced proliferation. This change in signal is proportional to the number of viable cells and used as a measure of relative cytotoxicity. Therefore, the fluorescence intensity observed in this assay is a true measure of the viable proliferative cells.
• 2 mM stock of Paclitaxel in DMSO. • DMSO (Panreac, Cat. number 141954.1611) • Resazurin sodium salt (Sigma, R-7071). 50 mM stock in DMSO. Equipment • Biomek FX Laboratory Automated Workstation (Beckman Coulter Inc., Fullerton, Calif.) • CO2 incubator (VWR Science, USA) • Bright line Hemacytometer (Z359629, Sigma, IL, USA) Materials • 384-deep well plates (Greiner, N^o 781270) • 384-well optical bottom tissue culture plates (Greiner, No. 82051-282) Propagation CONDITIONS: 37° C., air 95%; carbon dioxide (CO2) 5%, humidified atmosphere. Subculturing: • Cells were grown in 175 cm^2 flasks to 90-100% of confluency. • Culture medium (RPMI-1640 (Paneco, C310)+10% fetal bovine serum (FBS)) was aspirated and cell layer was briefly rinsed with 0.53 mM EDTA (ethylenediaminetetraacetic acid) solution to remove all traces of serum. • 2 ml of 0.2% trypsin/0.53 mM EDTA solution was added to cells. • Flasks were returned to incubator for 5 min to allow cells detachment. • Add 6.0 ml of culture medium. • Single cell suspension was created by gently pipetting. • Cells are counted using a Hematocytometer and suspension with desirable cell concentration is prepared.
To test proliferation inhibition DU-145 cells were plated in 384-well plate at the density 4000 cells/well. Next day 4 mM solutions of compounds in DMSO were diluted 100 times in medium and added to cells to final concentration 20 uM (40 ul of cells+40 ul of compounds). Taxol at final concentration 1 uM was used as positive control. Cells were incubated with compounds for 3 days. After that Alamar-Blue was added to cells to final concentration of 50 uM. After incubation for 4-6 hours at 37° C., fluorescence in plate was read using fluorescence plate reader Wallac 1420 (530 nm excitation filter, 590 nm emission filter). Proliferation inhibition was calculated using formula: % INH=100*((Fnegative−compound signal)/(Fnegative−Fpositive)), • Fnegative—DMSO was added to cells (viable cells) • Fpositive—taxol (1 uM) was added to cells (number of cells at the first day of incubation)

IC50 | SMILES
0.114 µM | COc1cc(C(=O)N2CCc3cc4ccccc4nc32)cc(OC)c1OC [Example 1, 2,3-dihydro-1H-pyrrolo[2,3-b]quinolin-1-yl(3,4,5-trimethoxyphenyl)methanone]
0.183 µM | COc1ccc(C(=O)N2CCc3cc4cc(C)ccc4nc32)cc1OC [Example 2, (3,4-dimethoxyphenyl)(6-methyl-2,3-dihydro-1H-pyrrolo[2,3-b]quinolin-1-yl)methanone]
0.613 µM | COc1cccc(C(=O)N2CCc3cc4cc(C)ccc4nc32)c1 [Example 3, (3-methoxyphenyl)(6-methyl-2,3-dihydro-1H-pyrrolo[2,3-b]quinolin-1-yl)methanone]
3.62 µM | COc1ccccc1C(=O)N1CCc2cc3ccccc3nc21 [Example 4, 2,3-dihydro-1H-pyrrolo[2,3-b]quinolin-1-yl(2-methoxyphenyl)methanone]
10.3 µM | Cc1ccc(C(=O)N2CCC=c3cc(C)c4c(c32)C=CN=4)cc1 [Example 5, (6-methyl-2,3-dihydro-1H-pyrrolo[2,3-h]quinolin-1-yl)(4-methylphenyl)methanone]
16.1 µM | COc1ccccc1C(=O)N1CCc2cc3cccc(C)c3nc21 [Example 6, (2-methoxyphenyl)(8-methyl-2,3-dihydro-1H-pyrrolo[2,3-b]quinolin-1-yl)methanone]
17.2 µM | CC1=Cc2c3c(ccc2=N1)=CCCN3C(=O)c1ccccc1C [Example 7, (8-methyl-2,3-dihydro-1H-pyrrolo[2,3-h]quinolin-1-yl)(2-methylphenyl)methanone]
134 µM | Cc1cccc2cc3c(nc12)N(C(=O)c1ccccc1F)CC3 [Example 8, (2-fluorophenyl)(8-methyl-2,3-dihydro-1H-pyrrolo[2,3-b]quinolin-1-yl)methanone]
238 µM | O=C(c1ccccc1Br)N1CCc2cc3ccccc3nc21 [Example 9, (2-bromophenyl)(2,3-dihydro-1H-pyrrolo[2,3-b]quinolin-1-yl)methanone]
4400 µM | CC1=Cc2c3c(ccc2=N1)=CCCN3C(=O)c1cccc(F)c1 [Example 10, (3-fluorophenyl)(8-methyl-2,3-dihydro-1H-pyrrolo[2,3-h]quinolin-1-yl)methanone]
15000 µM | Cc1cccc2cc3c(nc12)N(C(=O)c1ccccc1Br)CC3 [Example 11, (2-bromophenyl)(8-methyl-2,3-dihydro-1H-pyrrolo[2,3-b]quinolin-1-yl)methanone]
